# Assay results as given in article PMC5926292 (Japanese Journal of Cancer Research : Gann, 2000).
# What was measured:
# Assay in all cases: Colony assay of hematopoietic progenitors
# Type in all cases: cell-based
# Settings in all cases: Homo sapiens, read-out: IC50 for colony formation
# BFU-E = tested on: BFU-E
# CFU-Mix = tested on: CFU-Mix
# CFU-GM = tested on: CFU-GM
smiles,measurement,setting,value
C/C=C1\NC(=O)[C@H]2CSSCC/C=C/[C@H](CC(=O)N[C@H](C(C)C)C(=O)N2)OC(=O)[C@H](C(C)C)NC1=O [FK228],IC50,BFU-E,3.1 ng/mL
same,IC50,CFU-Mix,7.8 ng/mL
same,IC50,CFU-GM,4.4 ng/mL
